Experimental data: US20090099169A1, “Benzofuran Compounds As EP1 Receptor Antagonists” (GLAXO GROUP LIMITED, priority 2006, published 2009)
Where a name gives a salt, the structure may show the parent alone.

Tests used:
human EP1 receptor [1] = target: T1, human EP1 receptor (Homo sapiens, UniProt P34995); experiment: human EP1 calcium mobilisation assay; type: cell-based; design: expressed in transfected cells; conditions: CHO-K1 cells, antagonism of PGE2; averages of a number of experiments; read-out: functional pKi value (human EP1 calcium mobilisation assay) (converted)
T1 sequence (P34995 1-402): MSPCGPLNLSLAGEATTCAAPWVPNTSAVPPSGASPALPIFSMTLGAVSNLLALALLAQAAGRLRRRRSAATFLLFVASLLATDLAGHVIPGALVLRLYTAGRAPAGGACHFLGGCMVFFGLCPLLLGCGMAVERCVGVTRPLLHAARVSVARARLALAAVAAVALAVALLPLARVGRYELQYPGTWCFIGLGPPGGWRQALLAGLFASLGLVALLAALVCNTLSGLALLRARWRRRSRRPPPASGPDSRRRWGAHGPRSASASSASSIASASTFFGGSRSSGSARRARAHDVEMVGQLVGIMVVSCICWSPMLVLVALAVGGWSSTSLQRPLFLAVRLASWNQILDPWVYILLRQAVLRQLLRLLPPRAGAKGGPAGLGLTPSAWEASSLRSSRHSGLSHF
Procedure: Briefly, the antagonist properties of compounds are assessed by their ability to inhibit the mobilisation of intracellular calcium ([Ca^2+]i) in response to activation of EP1 or EP3 receptors by the natural agonist hormone prostaglandin E2 (PGE2). Increasing concentrations of antagonist reduce the amount of calcium that a given concentration of PGE2 can mobilise. The net effect is to displace the PGE2 concentration-effect curve to higher concentrations of PGE2. The amount of calcium produced is assessed using a calcium-sensitive fluorescent dye such as Fluo-4, AM and a suitable instrument such as a Fluorimetric Imaging Plate Reader (FLIPR). Increasing amounts of [Ca^2+]i produced by receptor activation increase the amount of fluorescence produced by the dye and give rise to an increasing signal. The signal may be detected using the FLIPR instrument and the data generated may be analysed with suitable curve-fitting software.
The human EP1 or EP3 calcium mobilisation assay (hereafter referred to as ‘the calcium assay’) utilises Chinese hamster ovary-K1 (CHO-K1) cells into which a stable (PCIN; BioTechniques 20 (1996): 102-110) vector containing either EP1 or EP3 cDNA has previously been transfected. Cells are cultured in suitable flasks containing culture medium such as DMEM:F-12 supplemented with 10% v/v foetal calf serum, 2 mM L-glutamine, 0.25 mg/ml geneticin, 100 μM flurbiprofen and 10 μg/ml puromycin.
For assay, cells are harvested using a proprietary reagent that dislodges cells such as Versene. Cells are re-suspended in a suitable quantity of fresh culture media for introduction into a 384-well plate. Following incubation for 24 hours at 37° C. the culture media is replaced with a medium containing Fluo-4 and the detergent pluronic acid, and a further incubation takes place. Concentrations of compounds are then added to the plate in order to construct concentration-effect curves. This may be performed on the FLIPR in order to assess the agonist properties of the compounds. Concentrations of PGE2 are then added to the plate in order to assess the antagonist properties of the compounds.
The data so generated may be analysed by means of a computerised curve-fitting routine. The concentration of compound that elicits a half-maximal inhibition of the calcium mobilisation induced by PGE2 (pIC50) may then be estimated.

human EP1 receptor [2] = target: T1, human EP1 receptor; experiment: Binding assay for the human prostanoid EP1 receptor (radioligand competition); design: expressed in transfected cells; host or cells: CHO-K1 (membranes); conditions: CHO-K1 membranes; [3H]-PGE2 for Examples 1-17, 19, 33, 34, 60 and 61, 3-{2-[5-Bromo-2-(2,4-difluorobenzyloxy)-phenyl]-5-methyl-pyrrol-1-yl}-6-[3H3-methoxy]methoxy-benzoic acid for the remaining; averages of a number of experiments; read-out: pIC50 value (binding assay for the human prostanoid EP1 receptor) (converted)
Procedure: Compound potencies are determined using a radioligand binding assay. In this assay compound potencies are determined from their ability to compete with tritiated prostaglandin E2 ([^3H]-PGE2) for binding to the human EP1 receptor.
This assay utilises Chinese hamster ovary-K1 (CHO-K1) cells into which a stable vector containing the EP1 cDNA has previously been transfected. Cells are cultured in suitable flasks containing culture medium such as DMEM:F-12 supplemented with 10% v/v foetal calf serum, 2 mM L-glutamine, 0.25 mg/ml geneticin, 10 μg/ml puromycin and 10 μM indomethacin.
Cells are detached from the culture flasks by incubation in calcium and magnesium free phosphate buffered saline containing 1 mM disodium ethylenediaminetetraacetic acid (Na2EDTA) and […] indomethacin for 5 min. The cells are isolated by centrifugation at 250×g for 5mins and suspended in an ice cold buffer such as 50 mM Tris, 1 mM Na2EDTA, 140 mM NaCl, 10 μM indomethacin (pH 7.4). The cells are homogenised using a Polytron tissue disrupter (2×10 s burst at full setting), centrifuged at 48,000×g for 20mins and the pellet containing the membrane fraction is washed (optional) three times by suspension and centrifugation at 48,000×g for 20mins. The final membrane pellet is suspended in an assay buffer such as 10 mM 2-[N-morpholino]ethanesulphonic acid, 1 mM Na2EDTA, 10 mM MgCl2 (pH 6). Aliquots are frozen at −80° C. until required.
(§1) For the binding assay the cell membranes, competing compounds and [^3H]-PGE2 (3 nM final assay concentration) are incubated in a final volume of 100 μl for 30 min at 30° C. All reagents are prepared in assay buffer. Reactions are terminated by rapid vacuum filtration over GF/B filters using a Brandell cell harvester. The filters are washed with ice cold assay buffer, dried and the radioactivity retained on the filters is measured by liquid scintillation counting in Packard TopCount scintillation counter.
The data are analysed using non linear curve fitting techniques to determine the concentration of compound producing 50% inhibition of specific binding (IC50).
Alternatively a similar assay may be carried out using 3-{2-[5-Bromo-2-(2,4-difluoro-benzyloxy)-phenyl]-5-methyl-pyrrol-1-yl}-6-[^3H3-methoxy]methoxy-benzoic acid instead of [^3H]-PGE2.
For the binding assay using 3-{2-[5-Bromo-2-(2,4-difluoro-benzyloxy)-phenyl]-5-methyl-pyrrol-1-yl}-6-[^3H3-methoxy]methoxy-benzoic acid instead of [^3H]-PGE2 the assay is carried out using a similar procedure to that described above using [^3H]-PGE2 with the following changes:
as §1, with “The” for “For the binding assay the”, “3-{2-[5-Bromo-2-(2,4-difluoro-benzyloxy)-phenyl]-5-methyl-pyrrol-1-yl}-6-[^3H3-methoxy]methoxy-benzoic acid (0.2” for “[^3H]-PGE2 (3”, “400” for “100”, “45” for “30”, “37°” for “30°”, “water at ambient temperature,” for “ice cold assay buffer,”
The preparation of 3-{2-[5-Bromo-2-(2,4-difluoro-benzyloxy)-phenyl]-5-methyl-pyrrol-1-yl}-6-methoxy-benzoic acid is described in WO 03/101959 and in Hall et al, Biorg. Med. Chem. Lett., 2007, 17, 916-920. The tritiated version may be prepared via conventional routes, e.g. from 3-{2-[5-bromo-2-(2,4-difluoro-benzyloxy)-phenyl]-5-methyl-pyrrol-1-yl}-6-hydroxy-benzoic acid or 3-{2-[5-bromo-2-(2,4-difluoro-benzyloxy)-phenyl]-5-methyl-pyrrol-1-yl}-6-hydroxy-benzoic acid methyl ester.

Structure (SMILES) | Ki (human EP1 receptor [1]) [nM] | IC50 (human EP1 receptor [2]) [nM]
Cc1cc(C(=O)Nc2ccc(CN3CCOCC3)cc2)nn1Cc1cc(Br)cc2cc(C(C)C)oc12 [Example 52, 1-{[5-Bromo-2-(1-methylethyl)-1-benzofuran-7-yl]methyl}-5-mthyl-N-[4-(4-morpholinylmethyl)phenyl]-1H-pyrazole-3-carboxamidehydrochloride] | ≤ 316 | ≤ 100
CC(C)c1cc2cc(Cl)cc(Cc3ccc(C(N)=O)o3)c2o1 [Example 37, 5-{[5-Chloro-2-(1-methylethyl)-1-benzofuran-7-yl]methyl}-2-furancarboxamide] | ≤ 316 | ≤ 100
Cc1cc(NC(=O)C(C)C)nn1Cc1cc(C#N)cc2cc(C(C)C)oc12 [Example 68, N-(1-{[5-Cyano-2-(1-methylethyl)-1-benzofuran-7-yl]methyl}-5-methyl-1H-pyrazol-3-yl)-2-methylpropanamide] | ≤ 316 | ≤ 100
Cc1cc(-c2nc3ccccc3[nH]2)nn1Cc1cc(Cl)cc2cc(C(C)C)oc12 [Example 5, 2-(1-{[5-Chloro-2-(1-methylethyl)-1-benzofuran-7-yl]methyl}-5-methyl-1H-pyrazol-3-yl)-1H-benzimidazole Hydrochloride] | ≤ 316 | ≤ 100
Cc1cc(C(=O)NC2CCOCC2)nn1Cc1cc(Cl)cc2cc(C3CCCCC3)oc12 [Example 29, 1-[(5-Chloro-2-cyclohexyl-1-benzofuran-7-yl)methyl]-5-methyl-N-(tetrahydro-2H-pyran-4-yl)-1H-pyrazole-3-carboxamide] | ≤ 316 | ≤ 100
Cc1cc(C(=O)O)nn1Cc1cc(C#N)cc2cc(C(C)C)oc12 [Example 25, 1-{[5-Cyano-2-(1-methylethyl)-1-benzofuran-7-yl]methyl}-5-methyl-1H-pyrazole-3-carboxylic Acid] | ≤ 316 | ≤ 100
CC(C)c1cc2cc(Cl)cc(Cc3ccc(C(=O)NCC4CCNCC4)o3)c2o1 [Example 48] | 1000 to 1580 | ≤ 100
Cc1cc(NC(=O)[C@H]2CC[C@H](O)CC2)nn1Cc1cc(Cl)cc2cc(C(C)C)oc12 [Example 63, trans-N-(1-{[5-chloro-2-(1-methylethyl)-1-benzofuran-7-yl]methyl}-5-methyl-1H-pyrazol-3-yl)-4-hydroxycyclohexanecarboxamide] |  | ≤ 100
CC(C)c1cc2cc(Cl)cc(Cc3cccc(C(=O)O)n3)c2o1 [Example 24] | ≤ 316 | ≤ 100
Cc1cc(C(=O)Nc2ccc(CN3CCC(O)CC3)cc2)nn1Cc1cc(Br)cc2cc(C(C)C)oc12 [Example 49, 1-{[5-Bromo-2-(1-methylethyl)-1-benzofuran-7-yl]methyl}-N-{4-[(4-hydroxy-1-piperidinyl)methyl]phenyl}-5-methyl-1H-pyrazole-3-carboxamide Hydrochloride] |  | ≤ 100
Cc1cc(C(=O)O)nn1Cc1cc(Cl)cc2cc(C(C)(C)C)oc12 [Example 27, 1-{[5-Chloro-2-(1,1-dimethylethyl)-1-benzofuran-7-yl]methyl}-5-methyl-1H-pyrazole-3-carboxylic Acid] | ≤ 316 | ≤ 100
Cc1cc(NC(=O)[C@H]2CC[C@@H](O)CC2)nn1Cc1cc(Cl)cc2cc(C(C)C)oc12 [Example 62, cis-N-(1-{[5-Chloro-2-(1-methylethyl)-1-benzofuran-7-yl]methyl}-5-methyl-1H-pyrazol-3-yl)-4-hydroxycyclohexanecarboxamide] |  | ≤ 100
Cc1cc(C(=O)NC2CCOCC2)nn1Cc1cc(Cl)cc2cc(C(C)C)oc12 [Example 60, 1-{[5-chloro-2-(1-methylethyl)-1-benzofuran-7-yl]methyl}-5-methyl-N-(tetrahydro-2H-pyran-4-yl)-1H-pyrazole-3-carboxamide] | ≤ 316 | ≤ 100
Cc1cc(C(=O)O)nn1Cc1cc(Br)cc2cc(C(C)C)oc12 [Example 19, 1-{[5-Bromo-2-(1-methylethyl)-1-benzofuran-7-yl]methyl}-5-methyl-1H-pyrazole-3-carboxylic Acid] | ≤ 316 | ≤ 100
CC(C)c1cc2cc(Cl)cc(Cc3ccc(-c4nc5cc(CO)ccc5[nH]4)o3)c2o1 [Example 9, [2-(5-{[5-Chloro-2-(1-methylethyl)-1-benzofuran-7-yl]methyl}-2-furanyl)-1H-benzimidazol-5-yl]methanol Hydrochloride] | ≤ 316 | ≤ 100
Cc1cc(C(=O)NN2CCOCC2)nn1Cc1cc(Cl)cc2cc(C(C)C)oc12 [Example 7, 1-{[5-Chloro-2-(1-methylethyl)-1-benzofuran-7-yl]methyl}-5-methyl-N-4-morpholinyl-1H-pyrazole-3-carboxamide] | ≤ 316 | ≤ 100
CNCc1ccc(NC(=O)c2cc(C)n(Cc3cc(Br)cc4cc(C(C)C)oc34)n2)cc1 [Example 50, 1-{[5-Bromo-2-(1-methylethyl)-1-benzofuran-7-yl]methyl}-5-methyl-N-{4-[(methylamino)methyl]phenyl}-1H-pyrazole-3-carboxamidehydrochloride] | ≤ 316 | ≤ 100
Cc1cc(C(=O)O)nn1Cc1cc(Cl)cc2cc(C3CC3)oc12 [Example 23, Sodium 1-[(5-chloro-2-cyclopropyl-1-benzofuran-7-yl)methyl]-5-methyl-1H-pyrazole-3-carboxylate] |  | ≤ 100
